The source of these data is paper PMC6135396, “Repurposing antimalarial aminoquinolines and related compounds for treatment of retinal neovascularization” (PLoS ONE, 2018).

Data set [1] can be described thus: Cytotoxicity, ATP-Lite, HRECs. The format is cell-based. To be noted: human, HREC cells; HRECs; read-out: Cytotoxicity LC50. As for the experimental part: (§1) Fa2N-4 immortalized human hepatocytes (Xenotech) or HREC cells were grown to subconfluency in wells of a 96-well plate and exposed to different concentrations of compounds for 24 h after which the cells were washed and the media and compounds replaced. The cells were returned to the incubator for another 24 h. The extent of cell death (cell lysis) was determined by ATP-Lite reagent (Perkin-Elmer).

The subject of the next data set is HRECs. Description: Cytotoxicity, ATP-Lite, HRECs. The data set is classed as cell-based. Particulars: tested up to 100 μM. As for the experimental part:
as §1

The nature of a further data set: LogD (pH 7.4). The format is physicochemical.
A short description of data set [2]: Plasma-protein binding, human. The format is in vitro ADME.
A further data set can be described thus: Plasma stability, human. The data set is classed as in vitro ADME.
The next data set in a line: Plasma stability, rat. The format is in vitro ADME.
A short description of data set [3]: Hepatic microsome stability, rat. The format is in vitro ADME. To be noted: liver microsomes, pH 7.4, single phase, read-out: Hepatic microsome stability T1/2. The protocol: Hepatic microsomes stability assays were performed as reported before. […] After preincubation at 37°C for 10 min, enzyme reactions were initiated by adding 120 μL of NADPH-generating system (2 mM NADP^+, 10 mM glucose-6-phosphate, 0.4 U/ml glucose-6-phosphate dehydrogenase, and 5 mM MgCl2) in the presence of 100 mM potassium phosphate buffer (pH 7.4). The final concentration of each model compound used was 1 μM. The microsomal concentrations used were 1.0 mg/mL. Compounds were incubated in microsomes for 0, 5, 15, 30 and 60 min. The reactions were stopped by the addition of ice cold ACN and the reaction mixtures were centrifuged at 10,000g for 10 min before the supernatant was removed for analysis.
Except for the primary assay in the HTS campaign, all experiments were repeated at least three times. Results are expressed as mean ± SEM. The Mann-Whitney test was used to determine statistical significance of the densitometry data of Western blot analysis. Unpaired two-tailed Student’s t-test was performed for the significance of the results of ELISA and in vitro tubule formation assay. ANOVA was used to determine the significance in vivo CNV models using the Tukey post-hoc test for multiple comparisons. […] T1/2 was calculated using the best fit curve resulting from non-linear (human) or linear (mouse and rat) regression analyses using Prism 7.

Data set [4] deals with choroidal neovascularization (CNV) lesions. As to the kind of experiment: Laser-induced CNV mouse model. The format is in vivo. To be noted: for CNV lesion volume vs vehicle control: two injections, choroidal flatmounts, 14 days post-laser.
The next data set has as its target T1, APJ (Homo sapiens, UniProt P35414).
T1 sequence (P35414 1-380): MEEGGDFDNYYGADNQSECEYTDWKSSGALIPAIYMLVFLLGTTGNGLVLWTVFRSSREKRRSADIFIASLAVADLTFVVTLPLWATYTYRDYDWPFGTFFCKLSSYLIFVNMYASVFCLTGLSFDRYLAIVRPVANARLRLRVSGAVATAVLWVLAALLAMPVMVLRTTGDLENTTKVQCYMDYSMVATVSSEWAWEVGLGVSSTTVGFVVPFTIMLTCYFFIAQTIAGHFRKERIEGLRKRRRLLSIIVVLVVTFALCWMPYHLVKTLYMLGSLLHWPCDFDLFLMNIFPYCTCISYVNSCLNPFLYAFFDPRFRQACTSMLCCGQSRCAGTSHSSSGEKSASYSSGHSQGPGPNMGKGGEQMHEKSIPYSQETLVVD
As to the kind of experiment: APJ cAMP assay (primary, cAMP HitHunter, CHO-K1-APJ cells). The format is cell-based. Set-up: host or cells: CHO-K1 (CHO-K1-APJ / CHO-k1-AGTRL1). As for the experimental part:
To identify small-molecule antagonists of the apelin receptor (APJ) we interrogated the SBP compound file of ~425,000 compounds using CHO-k1-AGTRL1 cells overexpressing human APJ and a competitive immunoassay of intracellular cAMP [59]. The compound file was screened at a concentration of 10 μM. For all 333 plates assayed, the average Z-factor = 0.68 and the average S/B = 8.2, indicating a robust assay performance. […] There were 2550 compounds that met this criterion, representing a hit rate of ~0.6%. […] Included in this hit set was a series of aminoquinolines, exemplified by compound 1 (Fig 1B). […] As part of an initial hit-validation strategy, these compounds and three other commercially available analogs were purchased for further testing. The purity and identify of all compounds were confirmed by NMR and LC-MS, and they were subsequently retested in a battery of cell-based assays of APJ function and counter screens. […] (Fig 1D).
PathHunter™ GPCR Arrestin and cAMP Hunter™ cell lines (DiscoveRx Corp., Fremont, CA) were used to assay G-protein-dependent signaling and β-arrestin recruitment to APJ. CHO-K1 cells stably expressing APJ (CHO-K1-APJ) or AT1 (CHO-K1-AT1) with β-arrestin/β-galactosidase enzyme fragment complementation constructs were maintained in HAM's F-12 medium (Hyclone, Logan, UT) supplemented with 10% FBS, 1X Penicillin-Streptomycin-Glutamine (Invitrogen; Carlsbad, CA), 300 μg/ml hygromycin (EMD Biosciences, San Diego, CA), and 800 μg/ml Geneticin (Cellgro, Manassas, VA). Primary Human Retinal Microvascular Endothelial Cells (HRECs) were purchased from Cell Systems (Kirkland, WA) and maintained in Complete Classic Medium with CultureBoost-R™ (Cell Systems). Parent CHO-K1 cells were obtained from ATCC and maintained in HAM’s F-12 medium supplemented with 10% FBS, and1X Penicillin-Streptomycin-Glutamine (Invitrogen; Carlsbad, CA). All cells were incubated at 37°C (5% CO2, 95% relative humidity) and maintained at less than 70% to 80% confluence (approximately 75,000 cells/cm^2). Cell heterologously expressing APJ or AT1 were not used after 10 passages. HRECs were not used in any experiments after five passages.
All reagents unless otherwise specified are components of the cAMP HitHunter (DiscoveRx) kit. Ligand Buffer + 60 μM Forskolin (Cayman Chemical, Ann Arbor, MI) was made fresh on the day of the experiment and used for the dilution of positive and negative controls as well as all peptides. CHO-K1-APJ cells were dispensed into a 1536-well tissue culture microplate (Corning, Corning, NY) using a Multidrop at a seeding density of 1,000 cells/well and returned to the incubator. The next day, the cell culture media was removed and replaced with 15 μl/well of assay buffer (1X HBSS, 10 mM HEPES) containing anti-cAMP antibody (DiscoveRx). […] Plates were incubated at room temperature in the dark for 3 hours prior to chemiluminescence detection on an EnVision (Perkin Elmer) using a counting time of 1 s/well.

The term logD denotes lipophilicity at a set pH, counting ionised and neutral species. As usually defined, the IC50 is the midpoint of a concentration-inhibition curve. As to `CCN(CC)Cc1cc(Nc2ccnc3cc(Cl)ccc23)ccc1O` [AQ, amodiaquine], the CC50 at 48 h in data set [1] was more than 100 µM. The “Cytotoxicity to HRECs” value in the data set on HRECs is “Neither ML221 nor AQ were significantly toxic”. Besides, in the data set “LogD (pH 7.4)”, the logD turned out to be 2.37. The Plasma-protein binding in data set [2] (1 μM) was determined as 88.2 % bound; in [2] (10 μM), 83.8 % bound. Moreover, the Plasma stability was 37.3 % remaining at 3 hrs in the data set “Plasma stability, human” and 46.3 % remaining at 3 hrs in “Plasma stability, rat”. Moreover, in [3], the half-life at 1 μM worked out at 38.9 min. The “CNV lesion size by optical coherence tomography vs vehicle treated eyes” value in data set [4] (14 days post-laser injury, intravitreal AQ 5.0-50.0 μg) is “significantly smaller”. In addition, the “CNV lesion volume vs vehicle control” value in data set [4] (AQ 5.0 μg intravitreal) was “not a statistically significant reduction”; in [4] (AQ 10.0 μg intravitreal) it was “not a statistically significant reduction”; in data set [4] (AQ 25.0 μg intravitreal), “statistically significant decrease”; in [4] (AQ 50.0 μg intravitreal) it was “an even greater decrease”. In addition, the “CNV lesion size in confocal images of agglutinin-stained choroidal flatmounts” value in [4] (intravitreal AQ) is “reduction in CNV lesion size at 10μg AQ and higher”. At APJ, this compound gave an IC50 of 3.45 ± 0.028 µM. Moreover, on APJ (Ap13 concentration response curves after pre-incubation with AQ, Schild-type analysis), the “Mode of APJ antagonism” value was “non-competitive APJ antagonist”.
